The results in this text go back to patent publication US20250082633A1, “COMPOUNDS AND METHODS FOR MODULATING SPLICING” (REMIX THERAPEUTICS INC., priority 2021, published 2025).

The test system of one assay is K562 cells. Nature of the assay: Cell Titer Glo 2.0 cell viability assay. Type of assay: cell-based. The conditions noted are these: Homo sapiens, 500 cells/well, 72 hours. The method, boiled down: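 K562 cells (500/well) in IMDM with 10% FBS were exposed to serially diluted compounds at 0.1% DMSO final. After 72 h at 37° C, 5% CO2, viability was read by CellTiter-Glo 2.0 luminescence, with medium-only blanks.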
Background: In ATP-based viability assays light output follows the ATP content of the culture.

Assay [1] deals with HiBiT-tagged MYB protein in K562 cells. Nature of the assay: HiBit protein abundance assay, MYB. Type of assay: cell-based, human. The conditions noted are these: K562 HiBiT-modified cells, 24 hours, luminescence. The method, then:
(§1) Compounds described herein were used to screen for effects on quantitative protein abundance using a HiBit assay system (Promega). Quantitative protein abundance was determined by measuring the protein levels of HiBit-tagged protein targets expressed in cell culture via luminescence using the Nano-Glo HiBiT Lytic Detection System, which uses a split complementation assay format to reconstitute NanoBiT enzyme to generate a luminescent signal. A protein abundance assay was developed such that endogenous protein targets could be modified with the HiBiT peptide tag and their abundance could be assessed after compound treatment. Briefly, K562 cell lines containing a HiBiT-modification were treated with various compounds described herein (e.g., compounds of Formulas (I), (II), or (III)). After treatment for 24 hours, the protein abundance of a specific target was determined by measuring luminescence. • Promega Nano-Glo HiBiT Lytic Detection System (cat #N3030) • Corning 384-well TC-treated microplates (cat #3570) • Synthego Engineered Cells Knock-In Clones [table] Cells were maintained in IMDM with 10% FBS. Before the assay, cells were diluted with phenolphthalein-free growth media (IMDM+1% FBS media) and were seeded in a 384-well plate at a density of 10000 cells/well (for each cell line listed in Table 6). Each compound was prepared as a 10-point 3-fold serial dilution in DMSO with the top dose at a final concentration of 10 μM in the well. Unmodified K562 cells were added at the previously specified density with DMSO to serve as an assay baseline and positive control (PC) and DMSO only with the respective modified cell lines was added to the negative control (NC) columns. Final DMSO concentration was kept at or below 0.25%. Treated cell plates were placed in an incubator at 37° C. with 5% CO2 for 24 hours. After 24 hours, 25 μL of Complete HiBit Lytic reagent was added to each well at room temperature (e.g. one plate requiring 10 mL Lytic Buffer, 100 μL LgBiT Protein, 200 μL Lytic Substrate), shaken for 5 minutes at 600 RPM, then left to sit for 10 minutes for signal to stabilize before reading on a Spark Cyto plate reader (Tecan) with a 500 ms measurement time. To determine compound effects on protein abundance of each target in Table 6, the percent response for each respective cell line was calculated at each compound concentration as follows: For the normalized response at each concentration, a four-parameter logistical regression was fit to the data and the response was interpolated at the 50% value to determine a concentration for protein abundance at 50% (IC50) the untreated control.
(In general: HiBiT is a short tag that completes a luciferase, so light tracks the accessible tagged protein.)

In another assay the test system is Target C. Nature of the assay: HiBit protein abundance assay, Target C. The assay is classed as cell-based. To be noted: Homo sapiens; K562 HiBiT-modified cells, 24 hours, luminescence. The procedure:
as §1, with “Clones” for “Clones [table]”

Molecules are shown by their SMILES.

The GI50 is the concentration giving 50% growth inhibition. Read a low GI50 as greater sensitivity of the cells. The term IC50 denotes the point on the concentration scale where inhibition reaches its midpoint. Compound `Cn1cc2cc(-c3cc(F)c4nn(C5CCNCC5)cc4c3)cc(C#N)c2n1` [Compound 130, 5-[7-fluoro-2-(4-piperidyl)indazol-5-yl]-2-methyl-indazole-7-carbonitrile] gave a GI50 in the assay on K562 cells of 100 to 1000 nM. Moreover, the IC50 in assay [1] was 100 to 1000 nM; in the assay with Target C, less than 100 nM.

The compound `Cn1cc2cc(-c3ccc4nn(C5CCNCC5)cc4n3)c(O)c(F)c2n1` [Compound 107, 7-fluoro-2-methyl-5-[2-(4-piperidyl)pyrazolo [4,3-b]pyridin-5-yl]indazol-6-ol] displayed a GI50 in the assay with K562 cells of 100 to 1000 nM. For the same compound, the IC50 (in assay [1]; in the assay with Target C) was 100 to 1000 nM throughout.

On to `Cc1cn2nc(-c3cc(F)c4nn(C5CCN(CC6CC6)C6(CC6)C5)cc4c3)cc(C)c2n1` (stereo not drawn) [Compound 183, 6-[2-[4-(cyclopropylmethyl)-4-azaspiro[2.5]octan-7-yl]-7-fluoro-indazol-5-yl]-2,8-dimethyl-imidazo[1,2-b]pyridazine], for which the GI50 in the assay with K562 cells fell in the range of 100 to 1000 nM. The IC50 in assay [1] was 100 to 1000 nM; with Target C, less than 100 nM.

In the case of `Cn1cc2cc(-c3ccc4cn(C5CCNCC5)nc4c3)cc(F)c2n1` [Compound 148, 7-fluoro-2-methyl-5-[2-(4-piperidyl)indazol-6-yl]indazole], the GI50 in the assay on K562 cells was greater than 10000 nM. The IC50 (in assay [1]; in the assay with Target C) was greater than 10000 nM each time.

As to `Cc1cn2nc(-c3cc(O)c4nn(C5CCNCC5)cc4c3)cc(C)c2n1` [Compound 156, 5-(2,8-dimethylimidazo[1,2-b]pyridazin-6-yl)-2-(piperidin-4-yl)-2H-indazol-7-ol], in the assay on K562 cells, the GI50 was in the range of 1000 to 10000 nM. The IC50 (in assay [1]; in the assay with Target C) was 1000 to 10000 nM in each case.

In turn, `Cc1cn2nc(-c3cc(F)c4nn(C5CCN(CC6CC6)CC5)cc4c3)cc(C)c2n1` [Compound 149, 6-[2-[1-(cyclopropylmethyl)-4-piperidyl]-7-fluoro-indazol-5-yl]-2,8-dimethyl-imidazo[1,2-b]pyridazine] yielded a GI50 in the assay on K562 cells of less than 100 nM. For the same compound, the IC50 in assay [1] is 100 to 1000 nM; in the assay with Target C, less than 100 nM.

In turn, `Cc1cn2nc(-n3cc4cc(C5CCNCC5)cc(F)c4n3)cc(C)c2n1` [Compound 120, 6-[7-fluoro-5-(4-piperidyl)indazol-2-yl]-2,8-dimethyl-imidazo[1,2-b]pyridazine] displayed a GI50 in the assay with K562 cells of 1000 to 10000 nM. Further, the values for the 50% inhibitory concentration (IC50) (in assay [1]; in the assay with Target C) were 1000 to 10000 nM and greater than 10000 nM, respectively.

As to `Cc1ccc2nc(-c3cc(F)c4nn(C5CCNCC5)cc4c3)ccc2n1` [Compound 157, 2-[7-fluoro-2-(4-piperidyl)indazol-5-yl]-6-methyl-1,5-naphthyridine], the GI50 in the assay with K562 cells was greater than 10000 nM. Further, the IC50 in assay [1] was 1000 to 10000 nM; with Target C, greater than 10000 nM.

`Cc1cn2nc(-c3cc(F)c4nn(C5CCNC6(CC6)C5)cc4c3)cc(C)c2n1` (stereo not drawn) [Compound 171, 6-[2-(4-azaspiro[2.5]octan-7-yl)-7-fluoro-indazol-5-yl]-2,8-dimethyl-imidazo[1,2-b]pyridazine] came in with a GI50 in the assay on K562 cells of 100 to 1000 nM. Further, the IC50 was 100 to 1000 nM in assay [1] and less than 100 nM in the assay with Target C.

`Fc1cc(-c2ccc3cnccc3c2)cc2cn(C3CCNCC3)nc12` [Compound 161, 6-[7-fluoro-2-(4-piperidyl)indazol-5-yl]isoquinoline] displayed a GI50 in the assay with K562 cells of 1000 to 10000 nM. Also, the IC50 (in assay [1]; with Target C) was 1000 to 10000 nM each time.

`Cc1nc2ccc(-c3cc(F)c4nn(C5CCNCC5)cc4c3)cc2o1` [Compound 135, 6-[7-fluoro-2-(4-piperidyl)indazol-5-yl]-2-methyl-1,3-benzoxazole] registered a GI50 with K562 cells of 100 to 1000 nM. Also, the IC50 (in assay [1]; with Target C) was 100 to 1000 nM throughout.

In turn, `Fc1cc(-c2ccc3ncccc3c2)cc2cn(C3CCNCC3)nc12` [Compound 162, 6-[7-fluoro-2-(4-piperidyl)indazol-5-yl]quinoline] registered a GI50 with K562 cells of 1000 to 10000 nM. In addition, the IC50 (in assay [1]; with Target C) was 1000 to 10000 nM throughout.

Take `Cc1c(O)c(-c2ccc3nn(C4CCNCC4)cc3n2)cc2cn(C)nc12` [Compound 109, 2,7-dimethyl-5-[2-(4-piperidyl)pyrazolo[4,3-b]pyridin-5-yl]indazol-6-ol]: the GI50 in the assay on K562 cells was 100 to 1000 nM. Further, the IC50 in assay [1] was 100 to 1000 nM; with Target C it was less than 100 nM.

Turning to `Cc1cn2nc(-c3cc(F)c4nn(C5CCNCC5F)cc4c3)cc(C)c2n1` (stereo not drawn) [Compound 166, 6-[7-fluoro-2-(3-fluoro-4-piperidyl)indazol-5-yl]-2,8-dimethyl-imidazo [1,2-b]pyridazine], the GI50 with K562 cells lay within 1000 to 10000 nM. Besides, the IC50 (in assay [1]; with Target C) was 100 to 1000 nM in each case.

With `Cc1nc2c(C)c(O)c(-c3cc(F)c4nn(C5CCNCC5)cc4c3)cc2o1` [Compound 123, 6-[7-fluoro-2-(4-piperidyl)indazol-5-yl]-2,4-dimethyl-1,3-benzoxazol-5-ol], in the assay with K562 cells, the GI50 was 1000 to 10000 nM. Also, the values for the IC50 (in assay [1]; with Target C) were 1000 to 10000 nM and 100 to 1000 nM, respectively.

The compound `COc1cc(-c2cc3cn(C)nc3cc2O)nc2cn(C3CCNCC3)nc12` [Compound 140, 5-[7-methoxy-2-(4-piperidyl)pyrazolo[4,3-b]pyridin-5-yl]-2-methyl-indazol-6-ol] came in with a GI50 in the assay on K562 cells greater than 10000 nM. The IC50 (in assay [1]; in the assay on Target C) was 1000 to 10000 nM in each case.

Take `Cc1cc(-c2cc(F)c3nn(C4CCNCC4)cc3c2)cc2cn(C)nc12` [Compound 133, 5-(2,7-dimethylindazol-5-yl)-7-fluoro-2-(4-piperidyl)indazole]: the GI50 in the assay with K562 cells was in the range of 100 to 1000 nM. For the same compound, the IC50 in assay [1] was 100 to 1000 nM; in the assay on Target C it was less than 100 nM.

In turn, `COc1cc(-c2cc(C)c3nc(C)cn3n2)cc2cn(C3CCNCC3)nc12` [Compound 155, 6-(7-methoxy-2-(piperidin-4-yl)-2H-indazol-5-yl)-2,8-dimethylimidazo [1,2-b]pyridazine] displayed a GI50 with K562 cells of 100 to 1000 nM. Moreover, the IC50 (in assay [1]; with Target C) was 100 to 1000 nM each time.

With `Cc1cn2cc(-c3cc(F)c4nn(C5CCNCC5)cc4c3)nc(C)c2n1` [Compound 132, 6-[7-fluoro-2-(4-piperidyl)indazol-5-yl]-2,8-dimethyl-imidazo[1,2-a]pyrazine], the GI50 with K562 cells was 1000 to 10000 nM. Moreover, the IC50 in assay [1] lay in the range of 1000 to 10000 nM; with Target C it was 100 to 1000 nM.

Regarding `Cc1ncc2cc(-c3cc(F)c4nn(C5CCNCC5)cc4c3)ccc2n1` [Compound 165, 6-[7-fluoro-2-(4-piperidyl)indazol-5-yl]-2-methyl-quinazoline], the GI50 in the assay on K562 cells is greater than 10000 nM. For the same compound, the IC50 (in assay [1]; in the assay with Target C) was greater than 10000 nM throughout.
